Laboratory results: PMC7413254 (Nature Communications, 2020)
Read-outs that look alike come from different tables or passages of the source.

Experiments:
non-expressing oocytes [1] = assay: cells; assay type: cell-based, Xenopus laevis; settings: Xenopus laevis, total [3H]CQ transport; for inhibition at 500 µM: [test solute] = 0.5 mM; for inhibition at 1000 µM: [test solute] = 1 mM; for inhibition at 2000 µM: [test solute] = 2 mM
How it was run: (§1)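 Radioactivity accumulated per oocyte, read by liquid scintillation after 10% SDS lysis, served as the uptake measure. Incubations ran 1.5 h at 27.5 °C in ND96 at pH 5.5, matching digestive-vacuole acidity.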

PfCRT^Ecu1110 = PfCRT^Ecu1110 (Plasmodium falciparum, UniProt Q9N623, A220S/I356L/K76T/N326D); assay: [3H]CQ uptake into Xenopus oocytes, cis-inhibition by unlabelled solute; assay type: cell-based
Sequence of PfCRT^Ecu1110 (Q9N623 whole entry A220S/I356L/K76T/N326D): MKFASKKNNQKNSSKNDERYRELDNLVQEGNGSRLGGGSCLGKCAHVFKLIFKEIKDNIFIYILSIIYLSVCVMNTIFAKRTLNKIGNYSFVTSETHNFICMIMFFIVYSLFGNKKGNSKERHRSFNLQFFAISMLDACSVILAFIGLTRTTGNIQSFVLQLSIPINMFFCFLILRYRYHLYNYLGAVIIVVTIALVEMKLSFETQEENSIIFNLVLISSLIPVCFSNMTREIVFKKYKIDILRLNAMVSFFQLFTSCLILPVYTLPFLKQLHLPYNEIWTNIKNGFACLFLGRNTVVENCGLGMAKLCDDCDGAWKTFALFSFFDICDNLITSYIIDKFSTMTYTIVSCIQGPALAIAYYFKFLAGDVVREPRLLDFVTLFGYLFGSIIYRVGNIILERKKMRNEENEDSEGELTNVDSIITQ
How it was run: as §1

PfCRT^Dd2 = PfCRT^Dd2 (Plasmodium falciparum, UniProt Q9N623, A220S/I356T/K76T/M74I/N326S/N75E/Q271E/R371I); assay: as above; assay type: cell-based
Sequence of PfCRT^Dd2 (Q9N623 whole entry A220S/I356T/K76T/M74I/N326S/N75E/Q271E/R371I): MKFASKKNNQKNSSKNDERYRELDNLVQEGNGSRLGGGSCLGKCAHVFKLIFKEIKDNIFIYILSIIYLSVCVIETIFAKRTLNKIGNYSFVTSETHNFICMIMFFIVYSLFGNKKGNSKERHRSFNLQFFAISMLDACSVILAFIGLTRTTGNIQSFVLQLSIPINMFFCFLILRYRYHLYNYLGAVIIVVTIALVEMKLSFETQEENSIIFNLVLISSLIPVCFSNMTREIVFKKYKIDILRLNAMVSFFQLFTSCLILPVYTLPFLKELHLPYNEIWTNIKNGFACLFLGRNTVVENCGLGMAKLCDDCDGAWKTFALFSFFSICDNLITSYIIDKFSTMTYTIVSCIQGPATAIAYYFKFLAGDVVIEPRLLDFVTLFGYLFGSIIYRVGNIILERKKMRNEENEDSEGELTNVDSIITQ
How it was run: as §1

non-expressing oocytes [2] = assay type: cell-based, Xenopus laevis; settings: total [3H]CQ transport; for Uptake of [3H]CQ (% non-expressing oocyte control), trans-stimulation: non-expressing oocytes, normalised to the oocyte type control
How it was run: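 Oocytes (ten per treatment, ≥4 independent frogs/days) were preloaded by injecting VF-6 in 25 nL ND96 at pH 5.0, 5.5, 6.0 or 7.0, or Na^+-free choline buffer, then uptake run 1.5 h, 27.5 °C, ND96 pH 5.5 by default. Internal concentrations assumed ~400 nL oocyte volume.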

[3] = Oocyte, mean ± SEM, SEM, read-out: Uptake of [3H]CQ (% PfCRTDd2 control), cis-inhibition, non-expressing oocytes
[4] = non-expressing oocytes, normalised to the oocyte type control, read-out: Uptake of [3H]CQ (% non-expressing oocyte control), cis-inhibition
[5] = read-out: PfCRT-mediated [3H]CQ transport, cis-inhibition (% PfCRTEcu1110 control)
[6] = read-out: Uptake of [3H]CQ (% PfCRTDd2 control), cis-inhibition, PfCRTEcu1110, SEM
[7] = read-out: Uptake of [3H]CQ (% PfCRTEcu1110 control), cis-inhibition
[8] = read-out: [3H]CQ transport (% PfCRTEcu1110 control), cis-inhibition, PfCRTEcu1110, SEM
[9] = read-out: PfCRT-mediated [3H]CQ transport, cis-inhibition (% PfCRTDd2 control)
[10] = read-out: Uptake of [3H]CQ (% PfCRTDd2 control), cis-inhibition
[11] = read-out: Uptake of [3H]CQ (% PfCRTDd2 control), cis-inhibition, PfCRTDd2, SEM
[12] = read-out: [3H]CQ transport (% PfCRTDd2 control), cis-inhibition, PfCRTDd2, SEM

N[C@@H](CS)C(=O)O [L-cysteine]
inhibition at 500 µM (non-expressing oocytes [1]; [3]): 2.1 ± 0.08%
inhibition at 1000 µM (non-expressing oocytes [1]; [3]): 3.4 ± 0.01%
inhibition at 2000 µM (non-expressing oocytes [1]; [3]): 2.3 ± 0.1%
inhibition at 500 µM (non-expressing oocytes [1]; [4]): 99 ± 5.3%
inhibition at 1000 µM (non-expressing oocytes [1]; [4]): 100 ± 4.6%
inhibition at 2000 µM (non-expressing oocytes [1]; [4]): 99 ± 3.5%
inhibition at 500 µM (PfCRT^Ecu1110; [5]): 94 ± 1.6%
inhibition at 1000 µM (PfCRT^Ecu1110; [5]): 87 ± 2.6%
inhibition at 2000 µM (PfCRT^Ecu1110; [5]): 98 ± 4.5%
inhibition at 500 µM (PfCRT^Ecu1110; [6]): 31 ± 1%
inhibition at 1000 µM (PfCRT^Ecu1110; [6]): 29 ± 1.5%
inhibition at 2000 µM (PfCRT^Ecu1110; [6]): 33 ± 1.4%
inhibition at 500 µM (PfCRT^Ecu1110; [7]): 95 ± 4.2%
inhibition at 1000 µM (PfCRT^Ecu1110; [7]): 89 ± 5.5%
inhibition at 2000 µM (PfCRT^Ecu1110; [7]): 100 ± 7.1%
inhibition at 500 µM (PfCRT^Ecu1110; [8]): 28 ± 1.1%
inhibition at 1000 µM (PfCRT^Ecu1110; [8]): 26 ± 1.5%
inhibition at 2000 µM (PfCRT^Ecu1110; [8]): 30 ± 1.7%
inhibition at 500 µM (PfCRT^Dd2; [9]): 94 ± 4.1%
inhibition at 1000 µM (PfCRT^Dd2; [9]): 95 ± 3.6%
inhibition at 2000 µM (PfCRT^Dd2; [9]): 95 ± 2.8%
inhibition at 500 µM (PfCRT^Dd2; [10]): 97 ± 9.2%
inhibition at 2000 µM (PfCRT^Dd2; [10]): 97 ± 3.1%
inhibition at 500 µM (PfCRT^Dd2; [11]): 97 ± 9.2%
inhibition at 1000 µM (PfCRT^Dd2; [11]): 96 ± 3.5%
inhibition at 2000 µM (PfCRT^Dd2; [11]): 97 ± 3.1%
inhibition at 1000 µM (PfCRT^Dd2; [12]): 95 ± 3.6%
inhibition at 2000 µM (PfCRT^Dd2; [12]): 95 ± 2.8%
Uptake of [3H]CQ (% non-expressing oocyte control), trans-stimulation (non-expressing oocytes [2]; [test solute]i = 5 mM): 98 ± 2.2 % non-expressing oocyte control
Uptake of [3H]CQ (% non-expressing oocyte control), trans-stimulation (non-expressing oocytes [2]; [test solute]i = 45 mM (30 mM for some solutes due to solubility)): 100 ± 4.2 % non-expressing oocyte control
Uptake of [3H]CQ (% PfCRTDd2 control), trans-stimulation, non-expressing oocytes (non-expressing oocytes [2]; [test solute]i = 5 mM (intracellular), mean ± SEM, SEM): 3.1 ± 0.07 % PfCRTDd2 control
